The source of these data is patent publication US8975285B2, “P38 MAP kinase inhibitors” (Respivert Ltd., priority 2008, dated 2015).

Series [1] has as its system differentiated U937 cells. As to the kind of experiment: MTT assay in differentiated U937 cells. Type of series: cell-based, human. The arrangement: key: Negative: no significant toxic effect observed in MTT assay. The protocol: Differentiated U937 cells were pre-incubated with compound for 4 hrs in 5% FCS or 10% FCS for 24 hrs and 72 hr. […] After 1 hr incubation, the media were removed, 200 ul of DMSO added to each well and the plates were shaken lightly for 1 h prior to reading the absorbance at 550 nm. The percentage loss of cell viability was calculated for each well relative to vehicle (0.5% DMSO)-treatment. Consequently an apparent increase in cell viability for drug treatment relative to vehicle is tabulated as a negative percentage.
On the technique in general: Formazan colour is commonly taken as a measure of viable cells.

The test system of series [2] is LPS-induced neutrophil accumulation in BALF. Nature of the series: LPS-induced neutrophilia in the mouse: duration of action. Type of series: in vivo. Particulars: intra tracheal dosing, 12 or more hours of pre-dosing, BALF 8 h after LPS. The protocol:
Non-fasted mice were dosed by the intra tracheal route with either vehicle, or the test substance at the time points (“pre-dose”) indicated with respect to the start of LPS treatment. At T=0, mice were placed into an exposure chamber and exposed to LPS. Eight hours after LPS challenge, animals were under anesthetized, the trachea cannulated and BALF extracted by infusing and withdrawing 1 ml of PBS into the lungs via a tracheal catheter. Total and differential white cell counts in the BALF samples were measured using a Neubaur haemocytometer. Cytospin smears of the BALF samples were prepared by centrifugation at 200 rpm for 5 min at room temperature and stained using a DiffQuik stain system (Dade Behring). Cells were counted using oil immersion microscopy.
Data for neutrophil numbers is reported as total and differential number (test substance relative to vehicle) of cells per mL of BALF, mean±S.E.M. (n=8).

In the case of `COCC(=O)Nc1cc(COc2ccc(NC(=O)Nc3cc(C(C)(C)C)nn3-c3ccc(C)cc3)c3ccccc23)ccn1` [Example 1, N-(4-((4-(3-(3-tert-Butyl-1-p-tolyl-1H-pyrazol-5-yl)ureido)naphthalen-1-yloxy)methyl)pyridin-2-yl)-2-methoxyacetamide], the “Differentiated U937 cells MTT Assay 4, 24 h (10 μg/ml)” value in series [1] is reported as “Negative^2”. Moreover, in series [2], the “inhibition of LPS-induced neutrophil accumulation” value is “significant inhibition”.
